The values that follow come from patent US5025036A, “Catechol carboxylic acids” (Hoffmann-La Roche Inc., priority 1989, dated 1991).

In assay [1] the test system is cardiac lipid peroxidation. The assay can be described thus: In vitro testing of antiperoxidative agents (cardiac lipid peroxidation). In kind it is biochemical. The settings on record: rat cardiac liposomes, 60 minutes, 37° C., pH 7.4; read-out: Inhib. of Lipid Peroxidation IC50. As for the experimental part:
The test system employs hypoxanthine-xanthine oxidase (XO)-Fe^3+. ADP as the free radical generator and purified, native rat-heart membrane phosphoglyceride in Hepes-KCl buffer, pH 7.4, as the substrate. Inhibition of superoxide-dependent, iron-promoted lipid peroxidation in the linear reaction phase (after 1 hour of reaction) is measured as the net formation of thiobarbituric acid (TBA)-reactive material. In this system, the TBA-reactive material, isolated by HPLC, is exclusively (>95%) malondialdehyde (MDA), a fragmentation end-product arising from fatty acyl hydroperoxides and cyclic endoperoxides.
Conscious male Sprague-Dawley rats (~275 g) maintained on a normal rodent diet were decapitated. The hearts were rapidly removed and perfused via the aorta with ice-cold 10 mM Hepes buffer, pH 7.4. The aorta and atria were removed, and the ventricular tissue was blotted and weighed (wet weight). The hearts were minced on ice with scissors and finally homogenized (100 mg tissue/ml ice-cold buffer) for 15 seconds (3×5 seconds) with a Tekmar Tissumizer at "maximal" setting. The homogenate was filtered through 4-ply cheesecloth, and homogenate lipids were extracted and purified by a modified Bligh-Dyer procedure (M. D. Marshall and M. Kates, Biochem. Biophys. Acta 260, 558 (1972). The cardiac lipids were stored in CHCl3 under nitrogen at -20° C.
Liposomes were prepared from extracted and purified, native rat heart cardiac lipid and were used as substrate for free-radical attack. Cardiac lipid (in CHCl3) was placed in a glass flask and evaporated to dryness under nitrogen at room temperature; the flask was gently rotated during evaporation to yield a thin, dry lipid film. The lipid was taken up in 10 mM Hepes-0.145M CKl, pH 7.4, and was resuspended by indirect anaerobic sonication for 15 minutes at room temperature. The liposome suspension was used immediately.
A chelate was formed in Hepes-KCl buffer between Fe^3+ (1.0 mM FeCl3, final concentration) and ADP (10 mM, final concentration) at pH 7.4 with stirring at room temperature. Chelation was allowed to proceed for 90 minutes prior to use. The chelate was prepared fresh for each days experiments to ensure iron solubility, effective chelation, and valence state.
Malondialdehyde (MDA) equivalents were measured as thiobarbituric acid (TBA)-reactive material by the following modification of published methods. The reaction mixture, prepared fresh daily, contained water:BHT ([…] BHT in absolute ethanol):TBA (1.5% TBA in 0.2M Tris, pH 7.0) in the volume ratio 1:1:5. To each 1.0 ml of peroxidation reaction assayed (see below), 0.35 ml reaction mixture was added. After thorough mixing, the tubes were incubated in an 80° C. shaking water bath for 30 minutes. After this time, the tubes were plunged into an ice water bath, and the reaction was immediately stopped with 0.5 ml ice-cold 91% TCA followed by 2.0 ml CHCl3. After centrifugation for 30 minutes at 2000 rpm in a Sorval HL-8 rotor (4° C.), the absorbance of the washed, pink upper phase was read at 532 nm. A standard curve (0.8-40.0 nmol MDA) was run with every assay. For each curve, MDA was freshly prepared by acidification of 1,1,3,3-tetraethoxypropane with 75% TCA-2.3N HCl (0.15 ml acid mixture with 1.0 ml suitably diluted tetraethoxypropane). Computer-assisted regression analysis of the standard curve was used to quantify the molar amounts of MDA equivalents in the experimental samples.
Cardiac liposomes were subjected to superoxide-dependent, iron-promoted peroxidation in glass vessels to avoid the well-known antioxidant effects of many common polymerizing agents used to fabricate plastic labware. Screening was performed in triplicate in glass 12×75 mm tubes at a final reaction volume of 1.0 ml and a reaction time of 60 minutes. […]

Assay [2] is described as follows: Antibiotic-Induced Colitis in Hamsters, In Vivo. Also noted: species or system male Syrian hamsters (LUG). Particulars: >1.0 = therapy prolongs survival, ** p < 0.01. On the procedure:
Male Syrian hamsters (LUG), weighing 80 to 120 g were each given a single dose of 175 mg/kg of clindamycin-phosphate or of clindamycin-hydrochlorideintraperitoneally, to induce colitis. Approximately seven hours after injection, the animals were given the test compound orally or intraperitoneally and the therapy was continued twice a day for a period of four more days. For oral administration, the […] was suspended in water or dissolved in dimethylsulfoxide and delivered to the animals by gavage using an oral intubating needle. The effect of the therapy was measured by use of the Hazard Ratio, which is the ratio of the mortality of the animals treated with the test inhibitor compound contained in a vehicle to the mortality of the animals treated with the vehicle containing none of the test inhibitor compound. The mortality was determined for the test inhibitor compound-treated groups and for the vehicle-treated groups, respectively, twice daily, and was evaluated by comparing the survival curves of each group. The Kaplan-Meier estimate of the survival curve was calculated for each group and the Mantel-Cox (logrank) test was used to compare the survival curve of each test inhibitor compound-treated (therapy) group to that of the corresponding vehicle control group. […] (See, J. G. Bartlett et al. Amer. J. Vet. Res. 39: 1525-1530 (1978)).

As usually defined, the IC50 is the concentration at which inhibition is half-maximal. Turning to `CCCc1c(OCCCCc2cccc(O)c2O)ccc(C(C)=O)c1O` [1-[2-Hydroxy-4-[4-(2,3-dihydroxyphenyl)butoxy]-3-propylphenyl]ethanone], in assay [1], the half-inhibitory concentration (IC50) was more than 1000 nM.

On to `CCCc1c(OCCCCCCc2ccc(C(C)C)c(O)c2O)ccc(C(C)=O)c1O` [1-[2-hydroxy-4 [6-[2,3 dihydroxy-4-(1-methylethyl)phenyl]hexyloxy]-3 propylphenyl]ethanone], for which the half-inhibitory concentration (IC50) in assay [1] was found to be 700 nM.

`CCCc1c(OCCCCCCc2cccc(O)c2O)ccc(C(C)=O)c1O` [1-[2-hydroxy-4-[6-(2,3-dihydroxyphenyl)hexyloxy]-3-propylphenyl]ethanone]: in assay [1], the IC50 is 700 nM.

On to `CCCc1c(OCCCCc2cccc(O)c2O)ccc(C(=O)O)c1O` [4-[4-(2,3-dihydroxyphenyl)butoxy]-2-hydroxy-3-propylbenzoic acid], for which the IC50 in assay [1] was 500 nM. The “Hamster Colitis Model Hazard Ratio” value in assay [2] (10 mg/kg p.o) came out at 1.35; in assay [2] (100 mg/kg p.o), 0.1.

For `CCCc1c(OCCCCCCc2cccc(O)c2O)ccc(C(=O)O)c1O` [4-[6-(2,3-Dihydroxyphenyl)hexyloxy]-2-hydroxy-3-propylbenzoic acid], the concentration for half-maximal inhibition (IC50) in assay [1] was 300 nM. Further, the “Hamster Colitis Model Hazard Ratio” value in assay [2] (10 mg/kg p.o) is listed as 2.26; in assay [2] (100 mg/kg p.o), 4.22.

As for `O=C(O)c1ccc(OCCCCCCc2cccc(O)c2O)cc1O` [4-[6-(2,3-Dihydroxyphenyl)hexyloxy]-2-hydroxybenzoic acid], the IC50 in assay [1] is more than 1000 nM.

Turning to `O=C(O)c1ccc(OCCCCCCc2cccc(O)c2O)cc1` [4-[6-(2,3-Dihydroxyphenyl)hexyloxy]benzoic acid], the IC50 in assay [1] was more than 1000 nM.

For the compound `CCCc1c(OCCCCCCc2ccc(O)c(O)c2)ccc(C(=O)O)c1O` [4-[6-(3,4-dihydroxyphenyl)hexyloxy]-2-hydroxy-3-propylbenzoic acid], the IC50 in assay [1] was 600 nM.

On to `CCCc1c(OCCCCCCc2ccc(C(C)C)c(O)c2O)ccc(C(=O)O)c1O` [4-[6-[2,3-dihydroxy-4-(1-methylethyl)phenyl]hexyloxy]-2-hydroxy-3-propylbenzoic acid], for which, in assay [1], the IC50 turned out to be 700 nM.

Take `CCCc1c(OCCCCCCCCc2cccc(O)c2O)ccc(C(=O)O)c1O` [4-[8-(2,3-dihydroxyphenyl)octyloxy]-2-hydroxy-3-propylbenzoic acid]: the IC50 in assay [1] amounted to 300 nM.

As for `CCCc1c(OCCCCCCCCCCc2cccc(O)c2O)ccc(C(=O)O)c1O` [4-[10-(2,3-dihydroxyphenyl)decyloxy]-2-hydroxy-3-propylbenzoic acid], the IC50 in assay [1] was found to be 400 nM.
